Series [1] can be described thus: Evaluation of oxidation stability: QH residual rate after storage, QH ratio by HPLC. It is filed as physicochemical. How it is done: The weight ratio of reduced coenzyme Q10 to total coenzyme Q10 (namely, reduced coenzyme Q10/(oxidized coenzyme Q10+reduced coenzyme Q10)) is defined as “QH ratio”. The QH ratio was determined by the following HPLC analysis. For the evaluation of oxidation stability, a rate of the change in the QH ratio at the end of the evaluation from that at the beginning of the evaluation was defined as “QH residual rate”, and the QH residual rate determined by the following expression was used as a measure of oxidation stability.
QH residual rate (%)=100×QH ratio at the end of the evaluation/QH ratio at the beginning of the evaluation
Column: SYMMETRY C18 (manufactured by Waters); 250 mm (length), 4.6 mm (inner diameter)
Mobile phase: C2H5OH:CH3OH=4:3 (v:v)
Detection wavelength: 210 nm

The nature of series [2]: Measurement of water activity (AquaLab Series 4TE). Format: physicochemical. The conditions noted are these: for water activity in the packaged body: packaged body with controlled relative humidity; for water activity at 25° C.: composition or crystal as placed in the vial. The procedure:
The water activity was measured with AquaLab Series 4TE (METER Group Inc.). A sample having a volume of about 5 ml in a sample dish was placed in AquaLab Series 4TE, and the water activity at 25° C., was measured.

[3] abbreviates: sealed aluminum laminate bag, packed at controlled relative humidity, stored at 25° C., 4 weeks.
The mark [4] stands for this setting: packaged body with controlled internal relative humidity, stored at 40° C., 2 weeks.

With `COc1c(O)c(C)c(C/C=C(\C)CC/C=C(\C)CC/C=C(\C)CC/C=C(\C)CC/C=C(\C)CC/C=C(\C)CC/C=C(\C)CC/C=C(\C)CC/C=C(\C)CCC=C(C)C)c(O)c1OC` [Example 3, reduced coenzyme Q10], the “QH residual rate (%)” value in series [1] (setting [3]) is listed as 92.3%. In addition, the “water activity in the packaged body” value in series [2] was 0.50.

In the case of `COc1c(O)c(C)c(C/C=C(\C)CC/C=C(\C)CC/C=C(\C)CC/C=C(\C)CC/C=C(\C)CC/C=C(\C)CC/C=C(\C)CC/C=C(\C)CC/C=C(\C)CCC=C(C)C)c(O)c1OC` [Example 4, reduced coenzyme Q10], the “QH residual rate (%)” value in series [1] (setting [3]) was 95.3%. The “water activity in the packaged body” value in series [2] is reported as 0.85.

On to `COc1c(O)c(C)c(C/C=C(\C)CC/C=C(\C)CC/C=C(\C)CC/C=C(\C)CC/C=C(\C)CC/C=C(\C)CC/C=C(\C)CC/C=C(\C)CC/C=C(\C)CCC=C(C)C)c(O)c1OC` [Comparative Example 2, reduced coenzyme Q10], for which, in series [1] (sealed glass vial, stored at 25° C., relative humidity 60%, 4 weeks), the “QH residual rate (%)” value came out at 33.3%. Moreover, the “water activity at 25° C.” value in series [2] worked out at 0.13.

With “co-crystal composed of QH and nicotinamide [Example 10]”, the “QH residual rate (%)” value in series [1] (setting [4]) came to 92.2%. In series [2], the “water activity in the packaged body” value is 0.53.

`COc1c(O)c(C)c(C/C=C(\C)CC/C=C(\C)CC/C=C(\C)CC/C=C(\C)CC/C=C(\C)CC/C=C(\C)CC/C=C(\C)CC/C=C(\C)CC/C=C(\C)CCC=C(C)C)c(O)c1OC` [Comparative Example 1, reduced coenzyme Q10]: the “QH residual rate (%)” value in series [1] (sealed glass vial, stored at 40° C., relative humidity 75%, 4 weeks) came to 87.5%. Besides, the “water activity at 25° C.” value in series [2] stood at 0.17.

As for “co-crystal composed of QH and nicotinamide [Comparative Example 3]”, in series [1] (setting [4]), the “QH residual rate (%)” value worked out at 82.6%. Further, the “water activity in the packaged body” value in series [2] is recorded as 0.48.

These data come from patent US20250100959A1, “METHOD FOR STORING REDUCED COENZYME Q10” (KANEKA CORPORATION, priority 2021, published 2025).
